Literature values in patent publication EP0341603A2, “Atrial peptide derivatives” (ABBOTT LABORATORIES, priority 1988, dated 1989).
Bridge positions count the residues as written; N and C are the ends. Ends that are not written are not given here.

Settings: relative to furosemide

Substance: alpha-hANP: alpha-human atrial natriuretic polypeptide isolated from human atrium, a polypeptide consisting of 28 amino acids (SLRRSSCFGGRMDRIGAQSGLGCNSFRY; disulfide 7-23 (inferred); ends not checked; UniProt P01160 124-151, looked up)
- diuretic action, times as strong as that of furosemide: about 1000 times
